Patent US20060147934A1, “High speed assay for glycosyl transferases” (priority 2003, published 2006)
Where two headings read alike, the source gives them in different places.

Experiments:
MraY/MurG couple = assay: Coupled assay of MraY and MurG using HP20ss beads; type: biochemical, E. coli; details: titration of the MraY/MurG couple, 0.5 mg/mL protein at 10 min time (FIG. 5, Panel B)
Description: The MraY/MurG coupled assay reaction procedure was identical to that described above for the assay of MraY. However, quantitation of the coupled system was performed by monitoring the incorporation of radiolabeled MurG co-substrate UDP-N-[1-^14C]acetyl-glucosamine into the lipophilic product Lipid II. Accordingly, this assay mixture was modified to contain 100 mM Tris, pH 7.5, 30 mM MgCl2, 0.15% Triton X-100, 40 μM decaprenol phosphate, 100 μM UDP-MurNAc-pentapeptide, 100 ug/ml phosphatidyl glycerol, and 20 μM, 0.1 μCi UDP-N-[1-^14C]acetyl-glucosamine and typically 0.5 mg/mL of E. coli cell membranes in a final volume of 50 μL. All other procedures, times and temperatures were identical to those described for the MraY assay.

MraY = biological target: T1, MraY (Escherichia coli, UniProt P0A6W3); assay: Assay of MraY using HP20ss hydrophobic beads; type: biochemical, E. coli
T1 construct: MraY activity measured in membranes prepared from wild-type E. coli; endogenous in cells
T1 sequence (P0A6W3 1-360): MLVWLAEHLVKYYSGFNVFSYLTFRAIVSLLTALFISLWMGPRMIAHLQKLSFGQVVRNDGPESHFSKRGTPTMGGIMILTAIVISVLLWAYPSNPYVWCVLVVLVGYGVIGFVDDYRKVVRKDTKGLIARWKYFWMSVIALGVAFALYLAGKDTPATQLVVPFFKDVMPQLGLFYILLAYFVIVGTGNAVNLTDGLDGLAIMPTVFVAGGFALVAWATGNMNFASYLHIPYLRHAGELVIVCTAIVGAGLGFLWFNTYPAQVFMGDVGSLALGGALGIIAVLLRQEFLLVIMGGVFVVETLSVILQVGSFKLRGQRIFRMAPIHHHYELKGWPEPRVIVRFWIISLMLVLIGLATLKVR
Description: The reaction catalyzed transfer and use of the radiotracer are shown in FIG. 2, Panel A. The general course of manipulations are diagramed in FIG. 2, Panel D and described in the text. The reaction mixture for the MraY assay included 100 mM Tris, pH 7.5, 30 mM MgCl2, 0.15% Triton X-100, 100 μg/ml Phosphatidyl Glycerol, 40 μM decaprenol phosphate, 14 μM UDP-MurNAC-[^14C]pentapeptide (prepared as described above) and typically 0.5 mg/mL of E. coli cell membranes in a final volume of 50 μL. The phosphatidyl glycerol and decaprenol phosphate, which are supplied in organic solvent, were dried in the reaction tube before the addition of the other components.
The HP20ss resin used to isolate the Lipid I product from the above reaction mixture was equilibrated before use. Briefly, the dry resin was mixed thoroughly with excess methanol in a beaker and allowed to settle for 45 min. […]
For assays whereby the reaction is analyzed at various times, a larger reaction volume was prepared (50 μL is typically appropriate for each time point). […] The filterplate was then quantitated by liquid scintillation spectrometry with a TOPCOUNT (PERKIN ELMER LIFE SCIENCES, Downers Grove, Ill.) using 200 μL of scintillation cocktail (MICROSCINT 40, PERKIN ELMER LIFE SCIENCES, Downers Grove, Ill.) per well.

Substance | IC50 (MraY/MurG couple) | IC50 (MraY/MurG couple; listed as ramoplainin) | IC50 (MraY; membranes from wild-type E. coli, bead format (text to FIG. 5, Panel A)) | IC50 (MraY; titration of the MraY assay, 0.5 mg/mL protein at 10 min time (FIG. 5, Panel A), read-out: IC50)
ramoplanin | approximately 17 μg/mL | 17 µg/mL | – | –
tunicamycin | – | – | approximately 1 μg/mL | 1.1 µM
